Values of other authors as cited in patent publication US6761903B2, “Clear oil-containing pharmaceutical compositions containing a therapeutic agent” (Lipocine, Inc., priority 1999, dated 2004).
Read-outs that look alike come from different tables or passages of the source.

Legend:
[1] = as reported by the manufacturer of the commercial product, rough average or inventors' judgment
[2] = water having a pH at about 7 and below

| Compound | HLB [1] | other results |
| --- | --- | --- |
| CCCCCCCC/C=C\CCCCCCCC(=O)OCC(O)CO (centres unmarked) [glycerol monooleate] | – | solubility in water: practically water insoluble |
| C[C@H](CCC(=O)O)[C@H]1CC[C@H]2[C@@H]3[C@H](O)C[C@@H]4C[C@H](O)CC[C@]4(C)[C@H]3CC[C@]12C [CDCA, chenodeoxycholic acid] | – | solubility in water [2]: practically insoluble |
| C[C@H](CCC(=O)O)[C@H]1CC[C@H]2[C@@H]3[C@@H](O)C[C@@H]4C[C@H](O)CC[C@]4(C)[C@H]3CC[C@]12C [UDCA, ursodeoxycholic acid] | – | solubility in water [2]: practically insoluble |
| CCCCCCCC/C=C\CCCCCCCC(=O)OCC(O)CO (centres unmarked) [Glyceryl monooleate (C18:1), Glyceryl monooleate] | 3-4 | – |
| Polyglyceryl-2 stearate | 5-7 | – |
| Sorbitan trioleate | 4.3 | – |
| Sorbitan monopalmitate | 6.7 | – |
| PEG-8 dioleate | 8.8 | – |
| CCCCCCCCCCCC(=O)OCC(O)CO (centres unmarked) [Monolaurin] | <10 | – |
| Sorbitan monooleate | 4.3 | – |
| PEG-10 soya sterol | <10 | – |
| CCCCC/C=C\C/C=C\CCCCCCCC(=O)OC(C)C [Isopropyl linoleate] | <10 | – |
| CCCCCC/C=C\CCCCCCCC(=O)OCC(O)CO (centres unmarked) [Monopalmitolein (C16:1), Monopalmitolein] | <10 | – |
| CCCCCCCCCCCCOCCOCCOCCOCCO [PEG-4 lauryl ether] | 9.7 | – |
| PEG-5 oleate | 9.5 | – |
| Glyceryl palmitic/stearic | <10 | – |
| CC(=O)OCC(O)CO (centres unmarked) [Glyceryl acetate] | <10 | – |
| Dioctanoin [Dioctanoin (C8)] | <10 | – |
| PEG-12 dioleate | 10 | – |
| Dielaidin [Dielaidin (C18:1)] | <10 | – |
| Polyglyceryl-4 oleate | 5-7 | – |

| Compound | HLB [1] | other results |
| --- | --- | --- |
| PEG-5 stearate | 9.5 | – |
| PEG-5 soya sterol | <10 | – |
| PEG-9 stearate | >10 | – |
| CCCCCCCCCC(=O)OCC(C)OC(=O)CCCCCCCCC (centres unmarked) [Propylene glycol dicaprate] | >6 | – |
| Glycerol monooleate/linoleate | 3-4 | – |
| Sorbitan monostearate | 4.7 | – |
| Pentaerythrityl tetraisostearate | <10 | – |
| CCCCCCCC/C=C\CCCCCCCC(=O)[O-].[Na+] [Sodium oleate] | 18 | – |
| Polyglyceryl-101 decaoleate | 3.5 | – |
| Polyglyceryl-3 dioleate | <10 | – |
| PEG-30 cholestanol | >10 | – |
| CCCCCCCCCCCC(=O)OCC(O)CO (centres unmarked) [Glyceryl laurate] | 4 | – |
| PEG-20 glyceryl oleate | >10 | – |
| CCCCCCCCCCCCCCCC(=O)OCC(O)CO (centres unmarked) [Glycerol monopalmitate] | 4 | – |
| PEG 4-100 monolaurate | >9 | – |
| PEG-400 oleate | >10 | – |
| CCCCCC(=O)OCC(O)CO (centres unmarked) [Monocaproin (C6), Monocaproin] | <10 | – |
| Polyglyceryl-10 mono, dioleate | 11 | – |
| CCCCCCCC/C=C\CCCCCCCC(=O)OCC [Ethyl oleate] | <10 | – |
| PEG-12 distearate | 10.7 | – |
